Measured values: patent publication US9061060B2, “Deuterated benzylbenzene derivatives and methods of use” (Theracos Inc., priority 2008, dated 2015)

Experiments:
[1] = target: T1, human SGLT2 (Homo sapiens, UniProt P31639); experiment: Methyl-α-D-[U-14C]glucopyranoside uptake assay, cells stably expressing human SGLT2; assay type: cell-based; conditions: for IC50: HEK293.ETN cells expressing human SGLT2, 25% human serum, 1.5 hours; for Selectivity: SGLT1 IC50 divided by SGLT2 IC50
T1 construct: A full-length cDNA clone expressing human SGLT2 (GenScript Corporation)
T1 sequence (P31639 1-672): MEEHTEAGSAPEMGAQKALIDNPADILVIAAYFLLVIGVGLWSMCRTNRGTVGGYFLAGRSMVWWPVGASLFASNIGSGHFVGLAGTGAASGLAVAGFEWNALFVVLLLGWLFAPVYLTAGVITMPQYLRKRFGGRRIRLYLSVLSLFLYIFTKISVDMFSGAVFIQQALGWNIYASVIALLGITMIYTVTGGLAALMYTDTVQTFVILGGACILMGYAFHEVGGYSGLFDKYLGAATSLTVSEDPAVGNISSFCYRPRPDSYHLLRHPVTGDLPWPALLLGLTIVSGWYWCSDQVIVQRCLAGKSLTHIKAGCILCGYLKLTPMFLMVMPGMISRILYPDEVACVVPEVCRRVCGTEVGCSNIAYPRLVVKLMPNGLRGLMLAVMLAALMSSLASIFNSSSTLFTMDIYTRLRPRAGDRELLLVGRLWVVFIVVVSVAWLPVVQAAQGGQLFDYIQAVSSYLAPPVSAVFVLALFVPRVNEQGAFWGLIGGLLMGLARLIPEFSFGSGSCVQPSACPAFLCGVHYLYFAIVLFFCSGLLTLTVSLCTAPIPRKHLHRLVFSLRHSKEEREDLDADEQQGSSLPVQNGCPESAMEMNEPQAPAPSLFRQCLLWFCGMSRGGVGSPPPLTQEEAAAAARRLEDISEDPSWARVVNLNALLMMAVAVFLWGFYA
Description: A full-length cDNA clone expressing human SGLT2 (GenScript Corporation) was subcloned into Hind III and Not I sites of the pEAK15 expression vector. Clones harboring the cDNA inserts were identified by restriction analysis.
A plasmid containing human SGLT2 was linearized with Nsi I and purified by agarose gel electrophoresis. Using Lipofectamine 2000 Transfection Reagent (Invitrogen Corporation), DNA was transfected into HEK293.ETN cells and cultured in Dulbecco's Modified Eagle Medium (DMEM) containing 10% fetal bovine serum (FBS) at 37° C. under 5% CO2 for 24 hours. Transfectants were selected in the same growth medium supplemented with puromycin (Invitrogen Corporation) for two weeks. Puromycin-resistant cells were recovered and seeded on a fresh 96-well plate (single cell per well) and cultured in the presence of puromycin until cells became confluent.
Cells expressing SGLT1 or SGLT2 were seeded on 96-well ScintiPlate scintillating plates (PerkinElmer, Inc.) in DMEM containing 10% FBS (1×10^5 cells per well in […] medium) incubated at 37° C. under 5% CO2 for 48 hours prior to the assay.

[2] = target: T2, CYP3A4 (Homo sapiens, UniProt P08684); experiment: P450-Glo CYP screening kit, CYP3A4 inhibition; assay type: in vitro ADME; conditions: luminescence, read-out: IC50 3A4
T2 construct: purchased Promega
T2 sequence (P08684 whole entry): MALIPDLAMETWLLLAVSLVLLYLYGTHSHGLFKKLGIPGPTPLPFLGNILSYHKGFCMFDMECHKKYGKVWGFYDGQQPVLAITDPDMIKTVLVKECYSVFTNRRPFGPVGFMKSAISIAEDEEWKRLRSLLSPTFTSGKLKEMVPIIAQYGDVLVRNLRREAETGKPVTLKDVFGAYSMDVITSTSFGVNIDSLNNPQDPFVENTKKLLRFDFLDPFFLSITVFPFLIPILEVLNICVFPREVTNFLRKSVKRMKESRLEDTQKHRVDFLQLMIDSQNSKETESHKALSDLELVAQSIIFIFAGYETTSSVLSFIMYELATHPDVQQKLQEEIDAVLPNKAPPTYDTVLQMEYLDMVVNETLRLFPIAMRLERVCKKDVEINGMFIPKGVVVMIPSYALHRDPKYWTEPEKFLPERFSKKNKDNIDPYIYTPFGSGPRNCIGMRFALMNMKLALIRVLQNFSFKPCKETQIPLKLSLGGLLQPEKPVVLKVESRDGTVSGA
Description: P450-Glo™ CYP Screening Kits for CYP1A2, CYP3A4 and CYP2C19 were purchased from Promega. […] Luminescence was quantified using a Victor 3 spectrophotometer (PerkinElmer).

[3] = system: SD rats; experiment: Urinary glucose excretion in SD rats; assay type: in vivo; conditions: 1 mg/kg oral
Method: Each test compound was dissolved in 30% PEG400 and administered orally to overnight-fasted SD rats by gavage at the dose level of 1 mg/kg. Control rats were given 30% PEG400 only. One hour post dosing, glucose solution (2 g/kg, 10 mL/kg) was administered by oral gavage. Urine was collected within metabolic cages from 0 to 4 hours, and 4 to 24 hours post-dosing for urine volume and glucose measurement. Food was removed 16 hours before dosing and then provided 4 hours after dosing. Water was supplied ad libitum. The concentration of urinary glucose was determined at 4 hours and 24 hours post-dose using a biochemistry analyzer. Results were recorded for the periods 0-4 hours, 4-24 hours and 0-24 hours, and expressed as a percentage of the urinary glucose excretion (UGE) seen with reference compound A, which was run as a positive control in all experiments.

[4] = Metabolism in SD rats: distribution of metabolites in urine; assay type: in vivo; conditions: male SD rats, 50 mg/kg oral, five consecutive days, HPLC
Method: Each test compound was dissolved in 30% PEG400 and administered orally to male SD rats by gavages at the dose level of 50 mg/kg (when using co-crystals, the weight calculation was based on free drug) for five consecutive days. Control rats were given 30% PEG400 only. All rats were housed in metabolic cages individually. Food and water were supplied ad libitum. Clinical observations (with attention to diarrhea symptoms) were performed twice daily. Food and water consumption were determined daily. Urine was collected pre-determined intervals: pre-dose, 0-4 hours, 4-8 hours, and 8-24 hours post-dose. Metabolites were analyzed and identified by LC/MS. The structures of the metabolites were confirmed by re-synthesis or isolation from the urine by preparative HPLC and NMR analysis. On day 6, all animals were sacrificed and gross necropsy was performed. The urine from two rats for each test compound was collected and pooled. The samples were diluted (1 mL urine in 4 mL of methanol) and analyzed by LC-MS: Waters 2695 Separations Module equipped with a Waters 2996 Photodiode Array Detector and a Waters Micromass ZQ Detector; Waters XTerra C18 3.5 μm, 20 mm×2.1 mm column, 1.0 mL/min, detection at 190-400 nm; 1.7 min gradient 10-50% A, followed by 1.8 min gradient 50-95% A, hold 1 min at 95% A; solvent A: 100% acetonitrile+0.045% formic acid; solvent B: Milli-Q water+0.1% formic acid. The urine samples were analyzed from 0-4 hours, 4-8 hours, 8-24 hours and 0-24 hours after administration. The ratio of metabolites was highly consistent within each time for each rat. The metabolites were identified by mass then re-synthesized to confirm their identity and the relative distribution was assayed using HPLC. […] See also FIGS. 1, 2A-2C, 3A-3D, and 4A-4C.

Row | IC50 [1] | Selectivity [1] | IC50 [2] | Distribution of Metabolites in Urine (% of total), Peak 1 (Parent) [4] | SMILES | Urinary Glucose Excretion in Rats, 0-4 h, % relative to Ref A ([3]; 0-4 h) | Urinary Glucose Excretion in Rats, 0-24 h, % relative to Ref A [3] | Urinary Glucose Excretion in Rats, 4-24 h, % relative to Ref A ([3]; 4-24 h) | Urinary Glucose Excretion in Rats, 0-4 h (mean ± SD) ([3]; glucose 2 g/kg 1 h post dose, 0-4 h) | Urinary Glucose Excretion in Rats, 0-24 h (mean ± SD) ([3]; glucose 2 g/kg 1 h post dose) | Urinary Glucose Excretion in Rats, 4-24 h (mean ± SD) ([3]; glucose 2 g/kg 1 h post dose, 4-24 h)
1 | 0.0019 µM | 284 | 250 µM | 72% | COc1ccc(Cc2cc([C@@H]3O[C@H](CO)[C@@H](O)[C@H](O)[C@H]3O)ccc2Cl)cc1 [Ref B, (2S,3R,4R,5S,6R)-2-(4-chloro-3-(4-methoxybenzyl)phenyl)-6-(hydroxymethyl)tetrahydro-2H-pyran-3,4,5-triol, reference compound] | 122% | 78% | 74% | 233 ± 35 mg | 1889 ± 361 mg | 1657 ± 354 mg
2 | 0.0008 µM | 1025 | > 1000 µM | 87% | [2H]C([2H])([2H])Oc1ccc(C([2H])([2H])c2cc([C@@H]3O[C@H](CO)[C@@H](O)[C@H](O)[C@H]3O)ccc2Cl)cc1 [compound 19, (2S,3R,4R,5S,6R)-2-(4-chloro-3-((4-(methoxy-d3)phenyl)methyl-d2)phenyl)-6-(hydroxymethyl)tetrahydro-2H-pyran-3,4,5-triol] |  | 83% |  |  | 2096 ± 332 mg | 
